Assay results taken from US10399966B2, “Compounds for treatment of trypanosomes and neurological pathogens and uses thereof” (The University of North Carolina at Chapel Hill, priority 2016, dated 2019).
Like-named read-outs stand apart in the source and are kept apart here.

Experiments:
T. b. brucei = assay: In vitro antitrypanosomal activity against T. brucei (growth inhibition); type: cell-based, Trypanosoma brucei; details: Trypanosoma brucei
Method: Primary hits from the screen were further characterized using a dose-response assay format to determine the EC50. In parallel, the cytotoxicities of these compounds were determined against a proliferating human hepatoma cell line (Huh7). […] SI—CC50/EC50). The final set of confirmed T. brucei hits consisted of 1035 inhibitors. […] In vitro antitrypanosomal activities against T. b. rhodesiense (STIB9000) and cytotoxicities against L6 rat myoblast cells were measured following established protocols (Orhan et al., Mar. Drugs 8:47 (2010). […] All wells including negative controls contained a final of 0.4% DMSO. After incubation of the plates at 37° C. for 48 h, the parasite density was determined using the CellTiter-Glo reagent (Promega), a firefly luciferase assay system that measures the amount of cellular ATP present in plate wells.

human hepatocytes HepG2 = assay: Cytotoxicity against HepG2 cells; details: for EC50: Homo sapiens, HepG2, read-out: HepG2 EC50; for EC90: read-out: HepG2 EC90, concentration required to inhibit growth by 90%, human hepatocytes
Trypanosoma cruzi = assay: Efficacy against T. cruzi in vitro; type: cell-based; details: Trypanosoma cruzi; for EC90: read-out: T.cruzi EC90
[1] = Distribution between mouse plasma and brain (brain penetration, ip); type: in vivo; details: for Brain/plasma ratio / [compound]Brain / [compound]Plasma: Table 14, mice, single ip dose 5 mg/kg, one hour post-dose; for [compound]Brain / [compound]Plasma: ± SEM of 3 mice (compound 3: 6 mice); for concentration at 1 h / Kp at 1 h: mouse, 5 mg/kg, Table 8; for concentration at 1 h: groups of 3 mice (compound 3: ± SEM of 6 mice); for Kp at 1 h: groups of 3 mice, read-out: Average brain/plasma ratio
Method: For distribution of compounds between mouse plasma and brain, mice (in groups of 3) were injected with test compounds (5 mg/kg ip) and sacrificed at the indicated times for collection of plasma and brain. Compound was dissolved in 0.4 mL of dosing solution (7% Tween 80, 3% ethanol, 5% DMSO, 0.9% saline) for ip injections. The brains were weighed and immediately frozen, then later homogenized in acetonitrile using a Dounce homogenizer. Prior to animal studies, recovery of test compound was carried out by adding a known amount to a mouse brain in the test extraction solvent and performing the homogenization. Compound recovery was determined by liquid chromatography/tandem mass spectrometry analysis relative to a standard compound amount. Blood was taken from the same mice in heparinized capillary tubes (Fisherbrand) for determination of compound concentration in plasma. The concentration of compound in the brain was obtained by dividing the moles of compound in the brain by the brain volume (obtained from the brain weight assuming 1 g is 1 mL) and correcting for the brain vasculature volume of 2.5% by weight.
Brain penetration studies (Table 14) were initially performed upon compounds 1, 2, and 3, but were expanded to include other compounds in order to explore the SAR of brain penetration. Groups of three mice were given single 5 mg/kg ip doses of the test compounds and were sacrificed 1 h post-dose.

[2] = test system: human lymphocytes CRL-8155; assay: Cytotoxicity against CRL-8155 cells; details: human lymphoblasts; for EC50: read-out: CRL-8155 EC50, concentration required to inhibit growth by 50%; for EC90: read-out: CRL-8155 EC90, concentration required to inhibit growth by 90%
Method: The selectivity of each compound for the parasite over each of the two cell lines was calculated.

[3] = Table 8, read-out: T. brucei EC50
[4] = Table 11, read-out: T. b. brucei EC50
[5] = Table 9, read-out: T. brucei EC50
[6] = Table 9, read-out: T. brucei EC90
[7] = Table 10, read-out: T.cruzi EC50
[8] = brain and plasma, intraperitoneal
[9] = brain, intraperitoneal, read-out: Average [compound] brain
[10] = plasma, intraperitoneal, read-out: Average [compound] plasma

| SMILES | EC50 (T. b. brucei; [4]) [µM] | EC50 (T. b. brucei; [5]) [µM] | EC90 (T. b. brucei; [6]) [µM] | EC50 (human hepatocytes HepG2) [µM] | EC90 (human hepatocytes HepG2) [µM] | EC50 [2] [µM] | EC90 [2] [µM] | melting point [°C] | further results |
| --- | --- | --- | --- | --- | --- | --- | --- | --- | --- |
| O=C(Nc1ccc2sc(-c3ccc(F)c(F)c3)nc2c1)N1CC[C@@H](F)C1 [Compound 4, (R)-2-(3,4-Difluorophenyl)-5-(3-fluoro-N-pyrrolidylamido)benzothiazole] | 0.326 | 0.326 | 0.491 | > 50 | > 50 | > 50 | > 50 |  | EC50 (T. b. brucei; Table 6, read-out: T. brucei EC50): 0.326 µM; EC50 (T. b. brucei; [3]): 0.326 µM; EC50 (Trypanosoma cruzi; Table 6, read-out: T. cruzi EC50): 0.491 µM; EC50 (Trypanosoma cruzi; [7]): 0.968 µM; EC90 (Trypanosoma cruzi; Table 10): 1.54 µM; Brain/plasma ratio [1]: 4.86 ± 1.055; [compound]Brain [1]: 6.35 ± 2.257 µM; [compound]Plasma [1]: 1.20 ± 0.270 µM; concentration at 1 h ([1]; in vivo, read-out: Average [compound] brain): 6.35 ± 3.91 µM; concentration at 1 h ([1]; in vivo, read-out: Average [compound] plasma): 1.2 ± 0.467 µM; Kp at 1 h ([1]; in vivo): 4.86 ± 1.83 |
| O=C(Nc1ccc2sc(-c3ccc(F)c(F)c3)nc2c1)N1CCC(F)(F)C1 [Compound 9, 2-(3,4-Difluorophenyl)-5-(3,3-difluoro-N-pyrrolidylamido)benzothiazole] | 0.934 | 0.934 | 1.66 | > 50 | > 50 | > 50 | > 50 | 227 to 228 | EC50 (T. b. brucei; [3]): 0.934 µM; Brain/plasma ratio [1]: 7.92 ± 0.693; [compound]Brain [1]: 21.7 ± 1.96 µM; [compound]Plasma [1]: 2.81 ± 0.452 µM; Kp at 1 h [1, 8]: 7.92 ± 1.2; concentration at 1 h [1, 9]: 21.7 ± 3.4 µM; concentration at 1 h [1, 10]: 2.81 ± 0.784 µM |
| O=C(Nc1ccc2sc(-c3ccc(F)c(F)c3)nc2c1)N1CCC(C(F)(F)F)C1 (stereo not drawn) [Compound 10, 2-(3,4-Difluorophenyl)-5-[(3-trifluoromethyl)-N-pyrrolidylamido]benzothiazole] |  | 1.69 | 4.88 |  |  |  |  | 171 to 175 | EC50 (T. b. brucei; [3]): 1.7 µM; Brain/plasma ratio [1]: 0.477 ± 0.052; [compound]Brain [1]: 1.97 ± 0.612 µM; [compound]Plasma [1]: 4.15 ± 1.368 µM; Kp at 1 h [1, 8]: 0.477 ± 0.09; concentration at 1 h [1, 9]: 1.97 ± 1.06 µM; concentration at 1 h [1, 10]: 4.15 ± 2.37 µM |
| CN(C)C1CCN(C(=O)Nc2ccc3sc(-c4ccc(F)c(F)c4)nc3c2)C1 (stereo not drawn) [Compound 11, 2-(3,4-Difluorophenyl)-5-(3-dimethylamino-N-pyrrolidylamido)benzothiazole] |  | 1.7 | 1.95 |  |  |  |  | 147 to 149 | EC50 (T. b. brucei; [3]): 1.71 µM; Brain/plasma ratio [1]: 3.80 ± 0.331; [compound]Brain [1]: 3.00 ± 0.796 µM; [compound]Plasma [1]: 0.780 ± 0.202 µM; Kp at 1 h [1, 8]: 3.8 ± 0.57; concentration at 1 h [1, 9]: 3 ± 1.38 µM; concentration at 1 h [1, 10]: 0.78 ± 0.35 µM |
| O=C(Nc1ccc2sc(-c3ccccc3)nc2c1)c1cccs1 [Compound 18, 2-Phenyl-5-(2-thienylamido)benzothiazole] | 0.882 | 0.882 | 2.13 | > 50 | > 50 | > 50 | > 50 | 256 |  |
| O=C(Nc1ccc2sc(-c3ccccc3)nc2c1)N1CCSC1 [Compound 22] |  | 1.24 | 2.38 |  |  |  |  | 177 to 179 |  |
| O=C(Nc1ccc2sc(-c3ccccc3)nc2c1)N1CC=CCC1 [Compound 24, N-(2-Phenylbenzo[d]thiazol-5-yl)-3,6-dihydropyridine-1(2H)-carboxamide] |  | 1.12 | 1.35 |  |  |  |  | 199 to 200 |  |
| O=C(Nc1ccc2sc(-c3ccc(F)cc3)nc2c1)c1ccccc1 [Compound 25, 5-Benzamido-2-(4-fluorophenyl)benzothiazole] |  | 1.92 | 3 |  |  |  |  | 232.5 to 233.5 |  |
| O=C(Nc1ccc2sc(-c3ccc(F)cc3)nc2c1)N1CCCC1 [Compound 26, 2-(4-Fluorophenyl)-5-(N-pyrrolidylamido)benzothiazole] | 0.375 | 0.375 | 0.895 | > 50 | > 50 | > 50 | > 50 | 211 to 213 | EC50 (Trypanosoma cruzi; [7]): 0.666 µM; EC90 (Trypanosoma cruzi; Table 10): 0.802 µM |
| O=C(Nc1ccc2sc(-c3ccc(F)cc3)nc2c1)N1CCCCC1 [Compound 27, 2-(4-Fluorophenyl)-5-(N-piperidylamido)benzothiazole] | 0.427 | 0.427 | 0.737 | > 50 | > 50 | > 50 | > 50 | 227 to 229 | EC50 (Trypanosoma cruzi; [7]): 1.67 µM; EC90 (Trypanosoma cruzi; Table 10): 1.95 µM |
| O=C(Nc1ccc2sc(-c3cccc(F)c3)nc2c1)c1ccccc1 [Compound 28, 5-Benzamido-2-(3-fluorophenyl)benzothiazole] |  | 1.78 | 3.62 |  |  |  |  | 221 to 222 |  |
| CN1CCN(C(=O)Nc2ccc3sc(-c4cccc(F)c4)nc3c2)CC1 [Compound 30, N-(2-(3-Fluorophenyl)benzothiazol-5-yl)-4-methylpiperazine-1-carboxamide] |  | 3.15 | 7.55 |  |  |  |  | 224 to 226 |  |
| O=C(Nc1ccc2sc(-c3ccccc3F)nc2c1)N1CCCC1 [Compound 32, 2-(2-Fluorophenyl)-5-(N-pyrrolidylamido)benzothiazole] | 0.983 | 0.983 | 1.24 | > 50 | > 50 | > 50 | > 50 | 207 to 208 | EC50 (Trypanosoma cruzi; [7]): 1.23 µM; EC90 (Trypanosoma cruzi; Table 10): 1.99 µM |
| O=C(Nc1ccc2sc(-c3ccc(F)cc3F)nc2c1)N1CCCC1 [Compound 34, 2-(2,4-Difluorophenyl)-5-(N-pyrrolidylamido)benzothiazole] |  | 0.929 | 1.48 |  |  |  |  | 223 to 224 | EC50 (Trypanosoma cruzi; [7]): 1.73 µM; EC90 (Trypanosoma cruzi; Table 10): 2.02 µM |
| N#CC1CCN(C(=O)Nc2ccc3sc(-c4ccc(F)c(F)c4)nc3c2)C1 (stereo not drawn) [Compound 36, 2-(3,4-Difluorophenyl)-5-(3-cyano-N-pyrrolidylamido)benzothiazole] |  | 2.85 | 4.67 |  |  |  |  | 222 to 224 |  |
| O=C(Nc1ccc2sc(-c3ccc(F)c(F)c3)nc2c1)N1CCC(O)C1 (stereo not drawn) [Compound 38, 2-(3,4-Difluorophenyl)-5-(3-hydroxy-N-pyrrolidylamido)benzothiazole] |  | 7.68 | 13.6 |  |  |  |  | 211 to 213 |  |
| COC1CCN(C(=O)Nc2ccc3sc(-c4ccc(F)c(F)c4)nc3c2)C1 (stereo not drawn) [Compound 39, 2-(3,4-Difluorophenyl)-5-(3-methoxy-N-pyrrolidylamido)benzothiazole] |  | 3.05 | 4.59 |  |  |  |  | 189 to 190.5 |  |
| O=C(Nc1ccc2sc(-c3ccc(F)c(F)c3)nc2c1)N1CCC(F)(F)CC1 [Compound 40, 2-(3,4-Difluorophenyl)-5-(4,4-difluoro-N-piperidylamido)benzothiazole] |  | 2.98 | 4.17 |  |  |  |  | 222 to 225 |  |
| O=C(Nc1ccc2sc(-c3ccc(F)c(F)c3)nc2c1)N1C[C@@H](F)[C@@H](F)C1 [Compound 59, cis-2-(3,4-Difluorophenyl)-5-(3,4-difluoro-N-pyrrolidylamido)benzothiazole] |  |  |  |  |  |  |  | 241 to 243 | EC50 (T. b. brucei; Table 17, read-out: T. b. brucei EC50): 0.34 µM; EC90 (T. b. brucei; Table 17, read-out: T. b. brucei EC90): 0.517 µM |
